# Measured values as given in patent publication US9963480B2, “Nucleoside phosphoramidate compound and use thereof” (priority 2013, dated 2018).
# Test system: HCV 1b replicon
# Assay: Antiviral activity assay in HCV replicon system (Huh7 1b cells, luciferase reporter)
# Assay type: cell-based
# Conditions: Hepatitis C virus, Huh-7, 72 h
# Text: The cell line Huh7 1b, which was provided by WuXi AppTec Co., Ltd. in Shanghai, contained an HCV 1b replicon with a stable Luciferase (Luc) reporter. It was constructed by cloning HCV nonstructural protein gene, neo (G418 resistance) and luciferase reporter gene into the pBR vector through gene recombination technology. Then the vector carrying the HCV replicon was transfected into Huh7 cells, and the transfected Huh7 cells were screened by G418 resistance. The HCV replicon was stably replicated, and the related protein and luciferase were stably expressed in Huh7 cells. The cells model was used for in-vitro screen of anti-HCV compounds. The anti-HCV activity of the compounds was measured by detecting the level of luciferase expression. See Lohmann V, et al. 1999. Replication of subgenomic hepatitis C virus RNAs in a hepatoma cell line. Science. 285(5424):110-113.
# The control drug used in this experimental example was the compound of Example 25 in WO 2008/121634 (PCT/US2008/058183), i.e. (S)-2-{[(2R,3R,4R,5R)-5-(2,4-dioxo-3,4-dihydro-2H-pyrimidin-1-yl)-4-fluoro-3-hydr oxy-4-methyl-tetrahydro-furan-2-ylmethoxy]-phenoxy-phosphorylamino}-propanoic acid isopropyl ester. This compound was prepared according to the method described in J. Org. chem, 2011, 76, 8311-8319, and identified by H-NMR and mass spectrometry.
# • 2.1 compound preparation: adding each of the compounds listed in Table 2 to 96-well plates using a POD™ 810 Automation Platform (LabCyte Corporation, USA), with 10 μM of each of the compounds as a starting concentration and in duplicate; serially diluting each of the compounds in 3-fold fashion and formulating 10 concentrations, with the final concentration of DMSO being 0.5%; • 2.2 cells preparation: seeding the Huh71b cells into 96-well plates respectively with a volume of 125 μl and 8×10^3 cells/well, and incubating in a 37° C., 5% CO2 incubator for 72 h; • 2.3 detection of cell activity: adding 30 μl per cell of the CellTiter-Fluor™ Reagent, incubating in a 37° C., 5% CO2 incubator for 1 h, measuring the fluorescence signal values with a fluorometer, and using the obtained data for calculation of cytotoxicities of the compounds; • 2.4 Bright-Glo detection: adding 100 μl per well of the Bright-Glo™ Luciferase Substrate, using a chemiluminescence detection system EnVision™ (PerkinElmer, USA) to detect the fluorescence signal values within 5 minutes, and using the obtained data for calculation of potencies of the compounds. • 2.5 data processing: converting the obtained data to a percentage of cell viability (Viability %) using the following formula:
# [formula] • CPD: fluorescence signal value of the well added with the compound • ZPE (Zero percent effect): fluorescence signal value of the control well with zero percent effect. • Processing the raw data to calculate a percentage of inhibition (Inhibition %) using the following formula:
# [formula] • CPD: fluorescence signal value of the well added with the compound; • HPE (Hundred percent effect): fluorescence signal value of the control well with hundred percent effect; • ZPE (Zero percent effect): fluorescence signal value of the control well with zero percent effect.
# The inhibition percentage was processed by the GraphPad Prism software to obtain the corresponding curves and EC50 values.
row,SMILES,EC50
1,"CC(C)OC(=O)[C@H](C)NP(=O)(OC[C@H]1O[C@@H](n2ccc(=O)[nH]c2=O)[C@](C)(F)[C@@H]1O)Oc1ccc2[nH]ccc2c1 (stereo partly drawn) [Example 20, (2S)-2-(((1H-indol-5-yloxy)(((2R,3R,4R,5R)-5-(2,4-dioxo-3,4-dihydropyrimidin-1(2H)-yl)-4-fluoro-3-hydroxy-4-methyltetrahydrofuran-2-yl)methoxy)phosphoryl)amino)propanoic Acid Isopropyl Ester]",3.87 µM

# Same assay, conditions: Hepatitis C virus, Huh-7; Huh7 1b cells with HCV 1b replicon, Bright-Glo luciferase, 72 h; read-out: EC50
row,SMILES,EC50
1,"Cc1ccc(-c2ccc(OP(=O)(N[C@@H](C)C(=O)OC(C)C)OC[C@H]3O[C@@H](n4ccc(=O)[nH]c4=O)[C@](C)(F)[C@@H]3O)cc2)cc1 (stereo partly drawn) [Example 42, (2S)-2-((((4′-methyl-[1,1′-biphenyl]-4-yl)oxy)(((2R,3R,4R,5R)-5-(2,4-dioxo-3,4-dihydropyrimidin-1(2H)-yl)-4-fluoro-3-hydroxy-4-methyltetrahydrofuran-2-yl)methoxy)phosphoryl)amino)propanoic Acid Isopropyl Ester]",0.126 µM
2,"C[C@H](NP(=O)(OC[C@H]1O[C@@H](n2ccc(=O)[nH]c2=O)[C@](C)(F)[C@@H]1O)Oc1cccc2c1CCCC2)C(=O)OC(C)(C)C (stereo partly drawn) [Example 15, (2S)-2-(((5,6,7,8-tetrahydronaphthalen-1-yloxy)(((2R,3R,4R,5R)-5-(2,4-dioxo-3,4-dihydropyrimidin-1(2H)-yl)-4-fluoro-3-hydroxy-4-methyltetrahydrofuran-2-yl)methoxy)phosphoryl)amino)propanoic Acid t-butyl Ester]",> 3.33 µM
3,"COC(=O)CNP(=O)(OC[C@H]1O[C@@H](n2ccc(=O)[nH]c2=O)[C@](C)(F)[C@@H]1O)Oc1cccc2c1CCCC2 (stereo partly drawn) [Example 14, (2S)-2-(((5,6,7,8-tetrahydronaphthalen-1-yloxy)(((2R,3R,4R,5R)-5-(2,4-dioxo-3,4-dihydropyrimidin-1(2H)-yl)-4-fluoro-3-hydroxy-4-methyltetrahydrofuran-2-yl)methoxy)phosphoryl)amino)acetic Acid Methyl Ester]",0.223 µM
4,"CC(C)OC(=O)[C@H](C)NP(=O)(OC[C@H]1O[C@@H](n2ccc(=O)[nH]c2=O)[C@](C)(F)[C@@H]1O)Oc1ccc(-c2cccc(Cl)c2)cc1 (stereo partly drawn) [Example 32, (2S)-2-((((3′-chloro-[1,1′-biphenyl]-4-yl)oxy)(((2R,3R,4R,5R)-5-(2,4-dioxo-3,4-dihydropyrimidin-1(2H)-yl)-4-fluoro-3-hydroxy-4-methyltetrahydrofuran-2-yl)methoxy)phosphoryl)amino)propanoic Acid Isopropyl Ester]",0.068 µM
5,"Cc1cc(-c2ccc(OP(=O)(N[C@@H](C)C(=O)OC(C)C)OC[C@H]3O[C@@H](n4ccc(=O)[nH]c4=O)[C@](C)(F)[C@@H]3O)cc2)ccc1F (stereo partly drawn) [Example 41, (2S)-2-((((4′-fluoro-3′-methyl-[1,1′-biphenyl]-4-yl)oxy)(((2R,3R,4R,5R)-5-(2,4-dioxo-3,4-dihydropyrimidin-1(2H)-yl)-4-fluoro-3-hydroxy-4-methyltetrahydrofuran-2-yl)methoxy)phosphoryl)amino)propanoic Acid Isopropyl Ester]",0.05 µM
6,"CC(C)OC(=O)[C@H](C)NP(=O)(OC[C@H]1O[C@@H](n2ccc(=O)[nH]c2=O)[C@](C)(F)[C@@H]1O)Oc1ccc(-c2cccc(F)c2)cc1 (stereo partly drawn) [Example 31, (2S)-2-((((3′-fluoro-[1,1′-biphenyl]-4-yl)oxy)(((2R,3R,4R,5R)-5-(2,4-dioxo-3,4-dihydropyrimidin-1(2H)-yl)-4-fluoro-3-hydroxy-4-methyltetrahydrofuran-2-yl)methoxy)phosphoryl)amino)propanoic Acid Isopropyl Ester]",0.102 µM
7,CC(C)OC(=O)[C@H](C)NP(=O)(OC[C@H]1O[C@@H](n2ccc(=O)[nH]c2=O)[C@](C)(F)[C@@H]1O)Oc1ccc(-c2ccc(Cl)cc2F)cc1 (some centres unmarked) [Example 39],0.061 µM
8,CC(C)OC(=O)[C@H](C)NP(=O)(OC[C@H]1O[C@@H](n2ccc(=O)[nH]c2=O)[C@](C)(F)[C@@H]1O)Oc1ccc(C#Cc2ccccc2)cc1 (some centres unmarked) [Example 11],0.189 µM
9,Cc1ccc(-c2ccc(OP(=O)(N[C@@H](C)C(=O)OC(C)C)OC[C@H]3O[C@@H](n4ccc(=O)[nH]c4=O)[C@](C)(F)[C@@H]3O)cc2)cc1F (some centres unmarked) [Example 40],0.056 µM
10,COc1ccc(-c2ccc(OP(=O)(N[C@@H](C)C(=O)OC(C)C)OC[C@H]3O[C@@H](n4ccc(=O)[nH]c4=O)[C@](C)(F)[C@@H]3O)cc2)cc1 (some centres unmarked) [Example 36],0.073 µM
11,"CC(C)OC(=O)[C@H](C)NP(=O)(OC[C@H]1O[C@@H](n2ccc(=O)[nH]c2=O)[C@](C)(F)[C@@H]1O)Oc1ccccc1-c1ccccc1 (stereo partly drawn) [Example 3, (2S)-2-((([1,1′-biphenyl]-2-yloxy)(((2R,3R,4R,5R)-5-(2,4-dioxo-3,4-dihydropyrimidin-1(2H)-yl)-4-fluoro-3-hydroxy-4-methyltetrahydrofuran-2-yl)methoxy)phosphoryl)amino)propanoic Acid Isopropyl Ester]",0.123 µM
12,"Cc1cc2c(F)c(O[P@@](=O)(N[C@@H](C)C(=O)OC(C)C)OC[C@H]3O[C@@H](n4ccc(=O)[nH]c4=O)[C@](C)(F)[C@@H]3O)ccc2n1C [Example 43, (2S)-2-(((R)-((4-fluoro-1,2-dimethyl-1H-indol-5-yl)oxy)(((2R,3R,4R,5R)-5-(2,4-dioxo-3,4-dihydropyrimidin-1(2H)-yl)-4-fluoro-3-hydroxy-4-methyltetrahydrofuran-2-yl)methoxy)phosphoryl)amino)propanoic Acid Isopropyl Ester]",0.069 µM
13,"CC(C)OC(=O)[C@H](C)NP(=O)(OC[C@H]1O[C@@H](n2ccc(=O)[nH]c2=O)[C@](C)(F)[C@@H]1O)Oc1ccc(-c2ccc(Cl)cc2)cc1 (stereo partly drawn) [Example 27, (2S)-2-((((4′-chloro-[1,1′-biphenyl]-4-yl)oxy)(((2R,3R,4R,5R)-5-(2,4-dioxo-3,4-dihydropyrimidin-1(2H)-yl)-4-fluoro-3-hydroxy-4-methyltetrahydrofuran-2-yl)methoxy)phosphoryl)amino)propanoic Acid Isopropyl Ester]",0.098 µM
14,CC(C)OC(=O)[C@H](C)NP(=O)(OC[C@H]1O[C@@H](n2ccc(=O)[nH]c2=O)[C@](C)(F)[C@@H]1O)Oc1ccc2oc(-c3ccccc3)cc(=O)c2c1 (some centres unmarked) [Example 23],4.49 µM
15,"Cc1cc2c(F)c(O[P@](=O)(N[C@@H](C)C(=O)OC(C)C)OC[C@H]3O[C@@H](n4ccc(=O)[nH]c4=O)[C@](C)(F)[C@@H]3O)ccc2n1C [Example 33, (2S)-2-(((S)-((4-fluoro-1,2-dimethyl-1H-indol-5-yl)oxy)(((2R,3R,4R,5R)-5-(2,4-dioxo-3,4-dihydropyrimidin-1(2H)-yl)-4-fluoro-3-hydroxy-4-methyltetrahydrofuran-2-yl)methoxy)phosphoryl)amino)propanoic Acid Isopropyl Ester]",0.033 µM
16,"COc1cc(/C=C/c2ccc(OP(=O)(N[C@@H](C)C(=O)OC(C)C)OC[C@H]3O[C@@H](n4ccc(=O)[nH]c4=O)[C@](C)(F)[C@@H]3O)cc2)cc(OC)c1 (stereo in doubt) [Example 8, (2S)-2-((((E)-4-(3,5-dimethoxyphenylethenyl)phen-1-yloxy)(((2R,3R,4R,5R)-5-(2,4-dioxo-3,4-dihydropyrimidin-1(2H)-yl)-4-fluoro-3-hydroxy-4-methyltetrahydrofuran-2-yl)methoxy)phosphoryl)amino)propanoic Acid Isopropyl Ester]",0.411 µM
